The experiment has as its target T1, PDK1 kinase (Homo sapiens, UniProt O15530).
T1 sequence (O15530 1-556): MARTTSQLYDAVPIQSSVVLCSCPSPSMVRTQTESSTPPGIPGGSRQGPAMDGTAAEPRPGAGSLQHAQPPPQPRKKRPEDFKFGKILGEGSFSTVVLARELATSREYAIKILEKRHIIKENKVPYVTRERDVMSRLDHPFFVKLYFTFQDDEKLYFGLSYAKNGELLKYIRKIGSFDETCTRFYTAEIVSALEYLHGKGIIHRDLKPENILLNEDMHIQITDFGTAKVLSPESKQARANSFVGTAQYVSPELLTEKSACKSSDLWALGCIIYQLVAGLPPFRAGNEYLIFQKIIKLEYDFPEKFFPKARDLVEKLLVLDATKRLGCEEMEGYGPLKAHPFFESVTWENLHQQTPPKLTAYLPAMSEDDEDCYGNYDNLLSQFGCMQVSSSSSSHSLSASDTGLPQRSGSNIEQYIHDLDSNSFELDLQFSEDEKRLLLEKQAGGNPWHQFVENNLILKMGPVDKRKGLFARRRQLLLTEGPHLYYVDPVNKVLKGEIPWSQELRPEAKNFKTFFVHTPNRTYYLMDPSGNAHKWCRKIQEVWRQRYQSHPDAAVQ
The experiment can be described thus: PDK1 Kinase Alpha Screen Assay. Type of experiment: biochemical. Conditions: Table 1; 10 μM ATP, 50 nM PDK1-4 peptide. In short, it runs like this:
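PDK1 phosphorylation of 50 nM biotinylated PDK1-4 peptide with 10 μM ATP in 50 mM Tris pH 7.5, 10 mM MgCl2, 0.1% BSA, 0.01% Tween-20, 2 mM DTT, 2.5% DMSO, 3-18 h. Stopped with EDTA; phosphopeptide detected by AlphaScreen using phospho-(Ser/Thr) PKA substrate antibody on protein A acceptor and streptavidin donor beads, overnight at room temperature.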

By IC50 is commonly meant the point on the concentration scale where inhibition reaches its midpoint. A high value points to lower potency. For `C#Cc1ccc2nc(Nc3cc(-c4cccnc4)cc(N4CCOCC4)c3)ncc2c1` [Example 159, 6-ethynyl-N-(3-morpholino-5-(pyridin-3-yl)phenyl)quinazolin-2-amine], the IC50 is < 5 µM. `COc1cc(C#CC(C)(C)O)cc2cnc(Nc3ccc(S(N)(=O)=O)cc3)nc12` [Example 65, 4-(6-(3-hydroxy-3-methylbut-1-ynyl)-8-methoxyquinazolin-2-ylamino)benzenesulfonamide]: the IC50 was < 5 µM.

The values are drawn from US20100216767A1, “QUINAZOLINES FOR PDK1 INHIBITION” (priority 2006, published 2010).
